# Tests used:
# [1] = system: Japanese encephalitis virus; details: compared with Dengue virus; cited from earlier work
# [2] = system: Japanese encephalitis virus; details: mice given a lethal dose of Japanese encephalitis virus; cited from earlier work
# FSS-13025 strain of ZIKV = assay: Anti-ZIKV activity in SNB-19 cells, ZIKV-NS1 Western blot; type: cell-based, Zika virus; details: 100 μm, 500 μm and 1 mM, one hour prior to inoculation (MOI=1), harvested 24 hours post-infection
# Experimental: FIG. 1. Castanospermine as anti-ZIKV compound. Castanospermine was screened for antiviral activity against ZIKV infection. Glioblastoma SNB-19 cells were treated with castanospermine at the indicated concentrations one hour prior to inoculation with the FSS-13025 strain of ZIKV (at MOI=1). Cells were harvested 24 hours post-infection and analyzed by Western blot for ZIKV-NS1 or GAPDH.
# Cells of the glioblastoma SNB-19 cell line were maintained at 37° C. in 5% CO2 in […], 1× penicillin/streptomycin, and 10% fetal bovine serum (Invitrogen). SNB-19 cells were treated with castanospermine at increasing concentrations (100 μm, 500 μm, and 1 mM) one hour prior to inoculation with the FSS-13025 strain of ZIKV. Cells were harvested 24 hours post-infection and analyzed by Western blot for ZIKV-NS1 or GAPDH.
# Zika virus (FSS13025) [3] = assay: Zika viral load in serum of Ifnar1-/- mice (ZIKV NS1 ELISA); type: in vivo, Ifnar1-/- mice (C57BL/6 background); details: 100 mg/kg BW intraperitoneal, day 0 to day 3
# Text: FIGS. 2A-2B. Zika viral load in serum in Ifnar1−/− mice. Serum was separated from the blood by centrifugation. Viral load (NS1) was estimated using the ZIKV NS1 ELISA Kit (BioFront Technologies, Fl, USA) as per the manual. Statistical analysis was done by unpaired t-test using GraphPad Prism software. *p<0.05 is considered as significant (FIG. 2B). With castanospermine treatment, there was 46% reduction in Zika virus load as estimated by NS1 protein in the serum (FIG. 2A).
# (§1) Ifnar1−/− mice (C57BL/6 background) were obtained (Muller U. et al. “Functional role of type I and type II interferons in antiviral defense”. Science. 1994; 264(5167):1918-21. Epub 1994/06/24). Out of 18 total Ifnar1−/− mice, two mice were dosed with castanospermine and media, 8 mice (male+female) were dosed with saline and ZIKV, and 8 mice were dosed with castanospermine and ZIKV on day-0. The drug was continued for three more days and animals were sacrificed on day-3. Body weight and water consumption were monitored daily.
# Zika virus (FSS13025) [4] = assay: Zika viral load in liver of Ifnar1-/- mice (ZIKV NS1 gene real time PCR); type: in vivo, Ifnar1-/- mice (C57BL/6 background); details: 100 mg/kg BW intraperitoneal, day 0 to day 3, ZIKV NS1 gene by real time PCR
# Experimental: FIGS. 3A-3B. Zika viral load in liver of Ifnar1−/− mice. After euthanizing the mice, liver tissue samples were stored in RNAase later buffer, and after homogenization in lysis buffer the total RNA was extracted using Rneasy column (Qiagen). cDNA was prepared using RT reaction. The expression level of the ZIKV NS1 gene was quantified by real time PCR using specific primers. Statistical analysis was done by unpaired t-test using GraphPad Prism software. *p<0.05 is considered as significant (FIG. 3B). There was a 68% decrease in the viral load in the liver with castanospermine treatment (FIG. 3A).
# as §1
# West Nile Virus = details: cited from earlier work
# [5] = by endogenous esterases; cited from earlier work
smiles,measurement,setting,value
"CCCCCCCCCN1C[C@H](O)[C@@H](O)[C@H](O)[C@H]1CO [NN-DNJ, N-nonyl-deoxynojirimycin]",suppression of cell infection by Japanese encephalitis virus,[1],suppressed cell infection but to a lesser extent than with Dengue virus
same,mortality rate,[2],decreased mortality rate
"O[C@H]1[C@H](O)[C@@H](O)CN2CC[C@H](O)[C@H]12 [castanospermine, (1S,6S,7R,8aR)-Tetrahydroxyoctahydroindolizine]",inhibition of ZIKV infection (ZIKV protein NS1 expression),FSS-13025 strain of ZIKV,significantly inhibit ZIKV infection
same,reduction in Zika virus load as estimated by NS1 protein in the serum,Zika virus (FSS13025) [3],46%
same,decrease in the viral load in the liver,Zika virus (FSS13025) [4],68%
same,sensitivity of West Nile Virus,West Nile Virus,insensitive
"CCCC(=O)O[C@H]1CN2CC[C@H](O)[C@@H]2[C@@H](O)[C@@H]1O [celgosivir, 6-O-butanoyl castanospermine]",conversion to castanospermine,[5],rapidly converted
